Test results taken from patent publication EP1200395B1, “UREA DERIVATIVES AS INHIBITORS OF CCR-3 RECEPTOR” (KIRIN BEER KABUSHIKI KAISHA, priority 1999, dated 2001).

Legend:
CCR-3 [1] = biological target: T1, CCR-3 (Homo sapiens, UniProt P51677); experiment: Eotaxin-induced chemotaxis of CCR-3 transfectant cells (CCR3/U937); type: cell-based; design: expressed in transfected cells; host or cells: U937; conditions: 6.25 µg/ml test compound; eotaxin 1 x 10^-9 M; CCR3/U937 cells (Table 3b)
T1 sequence (P51677 1-355): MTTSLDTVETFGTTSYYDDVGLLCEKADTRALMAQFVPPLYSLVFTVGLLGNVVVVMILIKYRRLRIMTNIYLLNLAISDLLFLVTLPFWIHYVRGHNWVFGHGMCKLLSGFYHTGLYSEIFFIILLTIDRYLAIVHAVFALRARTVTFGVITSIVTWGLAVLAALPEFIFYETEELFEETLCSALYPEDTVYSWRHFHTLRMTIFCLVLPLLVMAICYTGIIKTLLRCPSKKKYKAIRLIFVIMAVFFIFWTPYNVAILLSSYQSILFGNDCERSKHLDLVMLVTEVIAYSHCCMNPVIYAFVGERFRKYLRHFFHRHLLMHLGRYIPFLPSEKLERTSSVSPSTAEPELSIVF

CCR-3 [2] = biological target: T1, CCR-3; experiment: Calcium mobilization assay (inhibition of eotaxin-induced intracellular calcium mobilization in CCR3/HEK293 cells); type: cell-based; design: expressed in transfected cells; conditions: eotaxin 10 nM; for Ca^2+ mobilization 6.25 µg/ml (inhibition %): 6.25 µg/ml test compound, CCR3/HEK293 cells (Table 2a); for Ca^2+ mobilization 1.25 µg/ml (inhibition %): 1.25 µg/ml test compound, CCR3/HEK293 cells (Table 2b)
Protocol: Compounds 93-162 used in this assay were synthesized by using the method described in Example 6.
CCR-3 transfectant cells (CCR3/HEK293) were isolated and resuspended with assay buffer (20 mM HEPES, 125 mM NaCl, 5 mM KCl; 0.5 mM glucose, 1 mM CaCl2, 1 mM MgCl2, 0.1 % BSA). After washing CCR3/HEK293 cells with assay buffer, cells were loaded with Fura-2/AM in assay buffer for 1 hour at room temperature. Cells were washed and resuspended with assay buffer at 5 x 10^6 cells/ml in assay buffer, and placed in a tissue culture plate (Falcon, no. 3296). Test compounds dissolved in DMSO were added to the wells, followed by eotaxin (10 nM at final concentration). Cells were excited at 340 nm and 380 nm in a fluorimeter (ARGUS50, FDSS2000, Hamamatsu Photonics) and the relative ratio of the fluorescence emitted at 510 nm was recorded. For a control, DMSO without a test compound was added. Intracellular calcium mobilization was calculated as described in Krogel C. et al. , FEBS Let. (1989) 243 , 41-46.

Row | Structure (SMILES) | CCR-3 Transfectant Chemotaxis Assay 6.25 µg/ml (inhibition %) (CCR-3 [1]) [%] | Ca^2+ mobilization 6.25 µg/ml (inhibition %) (CCR-3 [2]) | Ca^2+ mobilization 1.25 µg/ml (inhibition %) (CCR-3 [2]) [%]
1 | Cc1cccc(NC(=O)NCCCN(Cc2ccc3c(c2)OCO3)CC(C)C)c1 [Compound 136] | 32 | 63% | 
2 | Cc1ccc(CCN(CCCNC(=O)Nc2ccccc2-c2ccccc2)CC(C)C)cc1 [Compound 111] | 44 | 51% | 
3 | CC(C)CN(CCCNC(=O)Nc1ccccc1-c1ccccc1)CCc1ccc(Cl)c(Cl)c1 [Compound 113] | 66 | 51% | 
4 | CCOC(=O)C1CC1CN(CCCNC(=O)Nc1ccccc1-c1ccccc1)CCc1ccc(Cl)c(Cl)c1 (stereo not shown) [Compound 115] | 62 | 57% | 
5 | CCOC(=O)C1CC1CN(CCCNC(=O)Nc1cccc(Cl)c1)C1CCCc2ccccc21 (stereo not shown) [Compound 149] | 31 | 56% | 
6 | CCOC(=O)C1CC1CN(CCCNC(=O)Nc1ccccc1-c1ccccc1)CCc1ccc(C)cc1 (stereo not shown) [Compound 112] | 26 | 52% | 
7 | Cc1ccc(CCN(CCCNC(=O)Nc2ccc(Br)cc2)CCCC(=O)O)cc1 [Compound 132] | 11 | 55% | 
8 | O=C(O)CCCN(CCCNC(=O)Nc1ccc(Cl)c(C(F)(F)F)c1)CCC(c1ccccc1)c1ccccc1 [Compound 97] | 21 | 57% | 
9 | O=C(NCCCN(CCc1ccccc1)CCc1ccc(Cl)c(Cl)c1)Nc1ccccc1-c1ccccc1 [Compound 114] | 22 | 51% | 
10 | CC(C)CCN(CCCNC(=O)Nc1ccc(Br)cc1)CCc1c[nH]cn1 [Compound 119] | 65 | 62% | 
11 | COc1ccc(CCN(CCCNC(=O)Nc2ccccc2-c2ccccc2)CC(C)C)cc1OC [Compound 108] | 23 | 61% | 
12 | O=C(NCCCN(CCOCc1ccccc1)CCc1c[nH]cn1)Nc1ccc(Br)cc1 [Compound 121] | 64 | 52% | 
13 | O=C(NCCCN(CCc1ccccc1)C[C@@H]1CCCN1)Nc1ccccc1-c1ccccc1 [Compound 107] | 55 | 53% | 
14 | O=C(NCCCN(CCc1ccc(Cl)c(Cl)c1)C[C@@H]1CCCN1)Nc1ccccc1-c1ccccc1 [Compound 116] | 82 | 68% | 
15 | CC(C)CCN(CCCNC(=O)Nc1ccccc1-c1ccccc1)Cc1ccc2c(c1)OCO2 [Compound 99] | 47 | . 53% | 
16 | COC(=O)CCCN(CCCNC(=O)Nc1ccccc1-c1ccccc1)CCc1ccccc1 [Compound 106] | 47 | 57% | 
17 | CSCCCN(CCCNC(=O)Nc1ccccc1-c1ccccc1)Cc1ccc2c(c1)OCO2 [Compound 100] | 54 | 53% | 
18 | CCOC(=O)C1CC1CN(CCCNC(=O)Nc1ccccc1-c1ccccc1)CCc1ccc(OC)c(OC)c1 (stereo not shown) [Compound 109] | 12 | 51% | 
19 | COc1ccc(CCN(CCCNC(=O)Nc2ccccc2-c2ccccc2)C[C@@H]2CCCN2)cc1OC [Compound 110] | 32 | 57% | 
20 | CC[N+](CCCNC(=O)Nc1ccc(Cl)c(Cl)c1)(CCOCCOC)CCc1ccc(Cl)cc1Cl.[I-] (stereo not shown) [compound 357] |  |  | 57
21 | CC[N+](CCCNC(=O)Nc1ccc(Cl)c(Cl)c1)(CCc1ccc(Cl)cc1Cl)CC1CCC1.[I-] (stereo not shown) [compound 362] |  |  | 49
22 | O=C(NCCCN(CCOCc1ccccc1)C1CCCc2ccccc21)Nc1ccc(Br)cc1 (stereo not shown) [Compound 123] |  | 53% | 
23 | COc1ccc(CCN(CCCNC(=O)Nc2ccc(Cl)c(C(F)(F)F)c2)CC(C)C)cc1OC [Compound 96] |  | 53% | 

Row | Structure (SMILES) | CCR-3 Transfectant Chemotaxis Assay 6.25 µg/ml (inhibition %) (CCR-3 [1]) [%] | Ca^2+ mobilization 6.25 µg/ml (inhibition %) (CCR-3 [2]) | Ca^2+ mobilization 1.25 µg/ml (inhibition %) (CCR-3 [2]) [%]
24 | CC[N+](CCCNC(=O)Nc1ccc(Cl)c(Cl)c1)(CCc1cccc(Cl)c1)CC1CCC1.[I-] (stereo not shown) [compound 361] |  |  | 70
25 | CC(C)CN(CCCNC(=O)Nc1ccc(Br)cc1)Cc1ccc(C(F)(F)F)cc1 [Compound 129] |  | 50% | 
26 | CC[N+](CCCNC(=O)Nc1ccc(OC)cc1)(CCc1ccc(Cl)cc1Cl)CC1CCC1.[I-] (stereo not shown) [compound 442] |  |  | 63
27 | COc1cc(CN(CCCNC(=O)Nc2ccc(Br)cc2)CCC(C)C)cc(OC)c1OC [Compound 131] |  | 52% | 
28 | C=C(C)C[N+](CC)(CCCNC(=O)Nc1ccc(Cl)c(Cl)c1)CCc1ccc(Cl)cc1Cl.[I-] (stereo not shown) [compound 366] |  |  | 46
29 | O=C(NCCCN(CCc1ccccc1)Cc1ccco1)Nc1cccc(Cl)c1 [Compound 144] |  | 51% | 
30 | CC[N+](CCCNC(=O)Nc1ccc(OC)cc1)(CCc1ccc(Cl)cc1)CC1CCC1.[I-] (stereo not shown) [compound 440] |  |  | 62
31 | C=C(C)C[N+](CC)(CCCNC(=O)Nc1ccc(Cl)c(Cl)c1)CCc1cccc(Cl)c1.[I-] (stereo not shown) [compound 365] |  |  | 65
32 | O=C(NCCCN(CCOCc1ccccc1)CCc1c[nH]cn1)Nc1cccc(Cl)c1 [Compound 148] |  | 57% | 
33 | COc1cc(CN(CCCNC(=O)Nc2ccccc2-c2ccccc2)CCCSC)cc(OC)c1OC [Compound 103] |  | 53% | 
34 | CC[N+](CCCNC(=O)Nc1ccc(OC)cc1)(CCc1cccc(Cl)c1)CCC(C)C.[I-] (stereo not shown) [compound 435] |  |  | 62
35 | O=C(NCCCN(CCOCc1ccccc1)Cc1ccc2c(c1)OCO2)Nc1ccc(Br)cc1 [Compound 127] |  | 59% | 
36 | CC[N+](CCCNC(=O)Nc1ccc(Cl)c(Cl)c1)(CCc1ccc(Cl)c(Cl)c1)CC1CCC1.[I-] (stereo not shown) [compound 363] |  |  | 56
37 | C=C(C)C[N+](CC)(CCCNC(=O)Nc1ccc(C#N)cc1)CCc1cccc(Cl)c1.[I-] (stereo not shown) [compound 399] |  |  | 58
38 | C=C(C)C[N+](CC)(CCCNC(=O)Nc1ccc(C#N)cc1)CCc1ccc(Cl)cc1Cl.[I-] (stereo not shown) [compound 400] |  |  | 68
39 | C=C(C)C[N+](CC)(CCCNC(=O)Nc1ccc(OC)cc1)CCc1ccc(Cl)c(Cl)c1.[I-] (stereo not shown) [compound 447] |  |  | 65
40 | CC(C)CCN(CCCNC(=O)Nc1cccc(Cl)c1)Cc1cccs1 [Compound 145] |  | 53% | 
41 | CSCCCN(CCCNC(=O)Nc1cccc(C)c1)CCc1ccc(C)cc1 [Compound 141] |  | 53% | 
42 | C=C(C)C[N+](CC)(CCCNC(=O)Nc1ccc(C#N)cc1)CCc1ccc(Cl)c(Cl)c1.[I-] (stereo not shown) [compound 401] |  |  | 57
43 | O=C(NCCCN(C[C@@H]1CCCN1)C1CCCc2ccccc21)Nc1ccccc1-c1ccccc1 (stereo partly shown) [Compound 98] |  | 51% | 
44 | CC[N+](CCCNC(=O)Nc1ccc(C#N)cc1)(CCOCCOC)CCc1ccc(Cl)cc1Cl.[I-] (stereo not shown) [compound 395] |  |  | 69
45 | CSCCCN(CCCNC(=O)Nc1ccc(Br)cc1)C1CCCc2ccccc21 (stereo not shown) [Compound 124] |  | 55% | 
